Measured values reported in US9206186B2, “2-phenoxy- and 2-phenylsulfonamide derivatives with CCR3 antagonistic activity for the treatment of inflammatory or immunological disorders” (AXIKIN PHARMACEUTICALS, INC., priority 2003, dated 2015).
Structures can show the parent of a compound that is named as a salt.

Assays:
[1] = target: T1, Human CCR3 (Homo sapiens, UniProt P51677); assay: Calcium mobilization assay (Ca2+), eotaxin-stimulated human CCR3-transformed K562 cells; assay type: cell-based; conditions: compounds of about 40 to 90% purity, read-out: Activity grade IC50
T1 construct: The cloned CCR3 cDNA was constructed with pcDNA3 vector and transfected into a K562 cell line; expressed in transfected cells
T1 sequence (P51677 1-355): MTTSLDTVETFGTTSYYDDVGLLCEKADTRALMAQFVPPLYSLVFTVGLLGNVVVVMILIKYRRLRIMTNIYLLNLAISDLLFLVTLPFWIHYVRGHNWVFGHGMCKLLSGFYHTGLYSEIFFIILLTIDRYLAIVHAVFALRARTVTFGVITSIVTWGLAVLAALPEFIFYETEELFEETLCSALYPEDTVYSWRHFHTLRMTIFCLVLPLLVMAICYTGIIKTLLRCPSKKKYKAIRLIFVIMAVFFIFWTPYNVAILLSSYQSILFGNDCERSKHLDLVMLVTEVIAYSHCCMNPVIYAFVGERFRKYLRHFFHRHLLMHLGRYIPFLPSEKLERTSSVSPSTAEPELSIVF
Procedure: • Human CCR3-transformed K562 cells were used. The cloned CCR3 cDNA was constructed with pcDNA3 vector and transfected into a K562 cell line. The human CCR3-transformed K562 cells were maintained in RPMI-1640 (Cat.#22400-089, Life Technologies) supplemented with 10% FCS (Cat.#A-1115-L, Hyclone), 55 μM 2-mercaptoethanol (Cat.#21985-023, Life Technologies), 1 mM sodium pyruvate (Cat.#11360-070, Life Technologies), 100 units/ml of penicillin G and 100 μg/ml of streptomycin (Cat.#15140-122, Life Technologies), and 0.4 mg/ml of Geneticin (Cat.#10131-035, Life Technologies) (hereinafter called “culture medium”). Before the receptor binding assay, cells were pretreated with 5 mM sodium butyrate (Cat.#193-01522, Wako)-containing the culture medium (2×10^5 cells/ml) for 20-24 hours to increase the expression of CCR3. (2) Receptor Binding Assay • Butyrate-pretreated cells, suspended in binding buffer (25 mM HEPES pH 7.6, 1 mM CaCl2, 5 mM MgCl2, 0.5% BSA, 0.1% NaN3) at a cell density of 2×10^6 cells/ml, were added into 60 μl/well in the 96-well round bottom polypropylene plate (Cat.#3365, Costar). Compounds, diluted with the binding buffer (4-times higher concentration of the final concentration), were added into 30 μl/well in the polypropylene plate. [^125I]-labeled human eotaxin (Cat.#IM290, Amersham Pharmacia Biotech), diluted with the binding buffer at the concentration of 0.4 nM (final concentration; 0.1 nM), was added into 30 μl/well in the polypropylene plate. Total 120 μl/well of binding reaction mixture (60 μl/well of cell suspension, 30 μl/well of compound solution, and 30 μl/well of [^125I]-labeled eotaxin) were incubated in the polypropylene plate for 1 hour at room temperature after the incubation, 100 μl/well of the reaction mixture was transferred to a filtration plate (Cat.#MAFB-N0B, Millipore), and washed with the washing buffer (25 mM HEPES pH 7.6, 1 mM CaCl2, 5 mM MgCl2, 0.5% BSA, 0.1% NaN3, 0.5 M NaCl) twice. The 96-well filtration plate was pretreated with 100 μl/well of 0.5% polyethylenimine (Cat.#P-3143, Sigma) for 2-4 hours at room temperature and washed with the washing buffer twice before use. The non-specific binding was determined by parallel incubation in the presence of 500 nM of non-labeled eotaxin (Cat.#23209, Genzyme Techne). The radioactivities remained on the filter were measured by liquid scintillation counter (TopCount™, Packard) after an addition of 45 μl/well of scintillant (Microscint20, Cat.#6013621, Packard). The inhibition percent at each concentration of compound was calculated, and IC50 values were determined from the inhibition curve. [Determination of IC50 Values of Compounds in Calcium Mobilization Assay] (1) Cell • Human CCR3-transformed K562 cells were used. The human CCR3-transformed K562 cells were maintained in RPMI-1640 supplemented with 10% FCS, 55 μM 2-mercaptoethanol (Cat.#21985-023, Life Technologies), 1 mM sodium pyruvate, 100 units/ml of penicillin G and 100 μg/ml of streptomycin, and 0.4 mg/ml of Geneticin. Before the calcium mobilization assay, cells were pretreated with 5 mM sodium butyrate-containing the culture medium (2×10^5 cells/ml) for 20-24 hours to increase the expression of CCR3. (2) Calcium Mobilization Assay • Butyrate-pretreated cells were loaded with Fluo-3AM (Cat.#F-1242, Molecular Probes) in loading buffer (Hanks' solution Cat.#05906 Nissui, 20 mM HEPES pH 7.6, 0.1% BSA, 1 mM probenecid Cat.#P-8761 Sigma, 1 μM Fluo-3AM, 0.01% pluronic F-127 Cat.#P-6866 Molecular Probes) at a cell density of 1×10^7 cells/ml. Then, cells were washed with calcium assay buffer (Hanks' solution Cat.#05906 Nissui, 20 mM HEPES pH 7.6, 0.1% BSA, 1 mM Probenecid Cat.#P-8761 Sigma). The cell suspension (3.3×10^6 cells/ml) was added into 60 μl/well in the 96-well clear bottom black plate (Cat.#3904, Costar). Compounds, diluted (5-times concentration of the final concentration) with the calcium assay buffer, were added into 20 μl/well in the plate 10 minutes before assay. […]

melting point	IC50 [1]	SMILES
220 to 226 °C (dec.)	–	N#Cc1ccc(Oc2cc(Cl)cc(Cl)c2)c(S(=O)(=O)C2CCNCC2)c1 (as salt: hydrochloride) [Example 2-1, 4-(3,5-Dichloro-phenoxy)-3-(piperidine-4-sulfonyl)-benzonitrile]
153 to 154 °C	0.1 to 0.5 µM	N#Cc1ccc(Oc2cc(Cl)cc(Cl)c2)c(S(=O)(=O)N2CC[C@H](N(CCO)CCO)C2)c1 [Example 1-15]
165 to 182 °C (dec.)	> 0.5 µM	N#Cc1ccc(Oc2cc(Cl)cc(Cl)c2)c(S(=O)(=O)N[C@@H]2CC3OC3C[C@@H]2N)c1 (stereo partly drawn) [Example 1-17]
–	0.1 to 0.5 µM	N#Cc1ccc(Oc2cc(Cl)cc(Cl)c2)c(S(=O)(=O)N2CC[C@H](N3C[C@H](O)[C@@H](O)C3)C2)c1 [Example 1-18]
–	> 0.5 µM	N#Cc1ccc(Oc2cc(Cl)cc(Cl)c2)c(S(=O)(=O)N[C@@H]2C[C@H](O)[C@@H](O)C[C@@H]2N)c1 [Example 1-19]
240 to 241 °C	> 0.5 µM	Cl.Cl.N#Cc1ccc(Oc2cc(Cl)cc(Cl)c2)c(S(=O)(=O)N2CCNC(CN)C2)c1 (stereo not drawn) [Example 1-20]
172 to 173 °C	0.1 to 0.5 µM	N#Cc1ccc(Oc2cc(Cl)cc(Cl)c2)c(S(=O)(=O)NC2CCCCNC2=O)c1 (stereo not drawn) [Example 1-24]
–	0.1 to 0.5 µM	COC(=O)C1CN(C2CCNCC2)CCCN1S(=O)(=O)c1cc(C#N)ccc1Oc1cc(Cl)cc(Cl)c1 (stereo not drawn) [Example 1-25]
220 to 226 °C (dec.)	–	Cl.N#Cc1ccc(Oc2cc(Cl)cc(Cl)c2)c(S(=O)(=O)C2CCNCC2)c1 [Example 1-47]

Further lines, the compound ahead of its results:

SMILES	melting point	IC50 [1]
O=[N+]([O-])c1ccc(Sc2cc(Cl)cc(Cl)c2)c(S(=O)(=O)N[C@H]2CN3CCC2CC3)c1 (stereo in doubt)	256 °C	–
CC(C)(C)[Si](C)(C)O[C@H]1CN(C2CCN(S(=O)(=O)c3cc(C#N)ccc3Oc3cc(Cl)cc(Cl)c3)CC2)C[C@@H]1O [Example 1-14]	–	0.1 to 0.5 µM
CN(C)CCN(C)CCN(C)S(=O)(=O)c1cc(C#N)ccc1Oc1cc(Cl)cc(Cl)c1 [Example 1-23]	–	0.1 to 0.5 µM
O=S(=O)(c1cc(-n2cnnn2)ccc1Oc1cc(Cl)cc(Cl)c1)N1CCNCC1 [Example 1-30]	–	> 0.5 µM
N#Cc1ccc(Oc2cc(Cl)cc(Cl)c2)c(S(=O)(=O)N(CCN2C(=O)CCC2=O)[C@H]2CN3CCC2CC3)c1 [Example 1-38]	–	> 0.5 µM
CN(C)CC(NS(=O)(=O)c1cc(C#N)ccc1Oc1cc(Cl)cc(Cl)c1)C(=O)O (stereo not drawn) [Example 1-40]	190 °C	> 0.5 µM
N#Cc1ccc(Oc2cc(Cl)cc(Cl)c2)c(S(=O)(=O)NC2CN(Cc3ccccc3)CCN(Cc3ccccc3)C2)c1 [Example 1-41]	–	> 0.5 µM
